In PMC4031276 (Molecular pharmaceutics, 2013):
Read-outs that look alike come from different tables or passages of the source. Marks after values point to notes of the source that are not given here.

How the values were obtained:
[1] = target: T1, hASBT (Homo sapiens, UniProt Q12908); details: read-out: Ki (μM ±SEM); glycine conjugates of native bile acids, provided for comparison; cited from earlier work
T1 sequence (Q12908 1-348): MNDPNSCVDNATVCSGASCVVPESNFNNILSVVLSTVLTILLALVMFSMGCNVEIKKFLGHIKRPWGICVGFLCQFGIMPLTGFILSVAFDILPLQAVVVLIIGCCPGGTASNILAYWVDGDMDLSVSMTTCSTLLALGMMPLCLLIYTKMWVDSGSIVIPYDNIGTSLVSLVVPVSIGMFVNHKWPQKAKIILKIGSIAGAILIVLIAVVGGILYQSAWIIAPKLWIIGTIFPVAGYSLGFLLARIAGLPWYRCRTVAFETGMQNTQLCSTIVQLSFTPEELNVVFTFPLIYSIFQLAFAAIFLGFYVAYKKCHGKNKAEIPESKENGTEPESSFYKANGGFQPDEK

[2] = target: T1, hASBT; details: native glycine conjugates, for comparison; cited from earlier work
[3] = tested on: hASBT-MDCK monolayer; details: passive permeability of native glycine conjugates, for comparison; cited from earlier work
[4] = target: T1, hASBT; experiment: hASBT-mediated active uptake into hASBT-MDCK monolayers; type: cell-based; details: for Kt fold higher than Ki: Kt vs Ki; for Kt (μM ±SEM): Michaelis-Menten transport constant, gly-iBA 1–200 μM, 10 min, 37 °C; for fold lower Jmax than corresponding native BA: TCA-normalized Jmax; for Relative Jmax (% TCA Jmax ±SEM): gly-iBAs, normalised to TCA Jmax
[5] = tested on: hASBT-MDCK monolayer; details: for Pp (cm/s ± SEM x 10^6): passive permeability of gly-iBAs, sodium-free buffer
[6] = target: T1, hASBT; experiment: cis-inhibition of taurocholate; details: for fold weaker inhibitory potency (Ki) than corresponding native BA: 3-hydroxyl epimerization (α to β)
[7] = maximum substrate flux, mean ± SEM
[8] = read-out: Ki (μM ±SEM), glycine conjugates of iso-bile acids, TCA 2.5 μM, 10 min, 37 °C, pH 6.8, mean (SEM)

Structure (SMILES) | Ki [1] | Relative Jmax (% TCA Jmax ±SEM) [2] | Pp (cm/s ± SEM x 10^6) [3] | Absolute Jmax [4, 7] | Pp (cm/s ± SEM x 10^6) [5] | Ki [6, 8] | also measured
C[C@H](CCC(=O)NCC(=O)O)[C@H]1CC[C@H]2[C@@H]3[C@H](O)C[C@@H]4C[C@H](O)CC[C@]4(C)[C@H]3C[C@H](O)[C@]12C [Gly-CA] | 7.53 µM | 152 (24) % TCA Jmax | 0.220 (0.157) cm/s x 10^6 |  |  |  | 
C[C@H](CCC(=O)NCC(=O)O)[C@H]1CC[C@H]2[C@@H]3[C@H](O)C[C@@H]4C[C@H](O)CC[C@]4(C)[C@H]3CC[C@]12C [Gly-CDCA] | 0.992 µM | 432 (58) % TCA Jmax | 0.414 (0.201) cm/s x 10^6 |  |  |  | 
C[C@H](CCC(=O)NCC(=O)O)[C@H]1CC[C@H]2[C@@H]3CC[C@@H]4C[C@H](O)CC[C@]4(C)[C@H]3C[C@H](O)[C@]12C [Gly-DCA] | 3.22 µM | 349 (47) % TCA Jmax | 0.520 (0.162) cm/s x 10^6 |  |  |  | 
C[C@H](CCC(=O)NCC(=O)O)[C@H]1CC[C@H]2[C@@H]3CC[C@@H]4C[C@H](O)CC[C@]4(C)[C@H]3CC[C@]12C [Gly-LCA] | 0.427 µM | 405 (64) % TCA Jmax | 0.865 (0.780) cm/s x 10^6 |  |  |  | 
C[C@H](CCC(=O)NCC(=O)O)[C@H]1CC[C@H]2[C@@H]3[C@@H](O)C[C@@H]4C[C@H](O)CC[C@]4(C)[C@H]3CC[C@]12C [Gly-UDCA] | 3.41 µM | 226 (36) % TCA Jmax | 1.01 (0.13) cm/s x 10^6 |  |  |  | 
C[C@H](CCC(=O)NCCS(=O)(=O)O)[C@H]1CC[C@H]2[C@@H]3[C@H](O)C[C@@H]4C[C@H](O)CC[C@]4(C)[C@H]3C[C@H](O)[C@]12C [TCA, Taurocholic acid, reference compound] |  |  |  |  |  |  | Absolute Jmax [4]: c Absolute Jmax (pmol/cm^2/s) for each gly-iBA were 0.017 ± 0.006 (gly-iLCA), 0.065 ± 0.004 (gly-iCDCA), 0.010 ± 0.003 (gly-iDCA), 0.038 ± 0.006 (gly-iUDCA), and 0.166 ± 0.024 (gly-iCA) respectively. TCA Pp and Jmax were 1.56 x 10^−6 cm/s and 0.271 ± 0.020 pmol/cm^2/s, respectively.
C[C@H](CCC(=O)NCC(=O)O)[C@H]1CC[C@H]2[C@@H]3[C@H](O)C[C@@H]4C[C@@H](O)CC[C@]4(C)[C@H]3C[C@H](O)[C@]12C [gly-iCA, 3β,7α, 12α-trihydroxy-5β-cholanic acid glycine amide] |  |  |  | 0.166 ± 0.024 pmol/cm^2/s | 0.740 (0.120) cm/s x 10^6 | 23.3 µM | Kt fold higher than Ki [4]: about 10 fold; Kt (μM ±SEM) [4]: 163 (37) μM; fold lower Jmax than corresponding native BA [4]: 3 fold; Relative Jmax (% TCA Jmax ±SEM) [4]: 61.2 (9.9) % TCA Jmax
C[C@H](CCC(=O)NCC(=O)O)[C@H]1CC[C@H]2[C@@H]3[C@H](O)C[C@@H]4C[C@@H](O)CC[C@]4(C)[C@H]3CC[C@]12C [gly-iCDCA, 3β, 7α-dihydroxy-5β-cholanic acid glycine amide] |  |  |  | 0.065 ± 0.004 pmol/cm^2/s | 0.058 (0.07) cm/s x 10^6 | 4.53 µM | Kt fold higher than Ki [4]: about 10 fold; Kt (μM ±SEM) [4]: 59.5 ± 8.8 µM; fold lower Jmax than corresponding native BA [4]: 18 fold; Relative Jmax (% TCA Jmax ±SEM) [4]: 23.9 (2.3) % TCA Jmax; fold weaker transport affinity (Kt) than native counterpart ([4]; vs gly-CDCA): 90 fold
C[C@H](CCC(=O)NCC(=O)O)[C@H]1CC[C@H]2[C@@H]3CC[C@@H]4C[C@@H](O)CC[C@]4(C)[C@H]3C[C@H](O)[C@]12C [gly-iDCA, 3β, 12α-dihydroxy-5β-cholanic acid glycine amide] |  |  |  | 0.010 ± 0.003 pmol/cm^2/s | 0.730 (0.020) cm/s x 10^6 | 12.4 µM | Kt (μM ±SEM) [4]: 149 (75) ^ns μM; Relative Jmax (% TCA Jmax ±SEM) [4]: 3.68 (1.14) ^e % TCA Jmax
C[C@H](CCC(=O)NCC(=O)O)[C@H]1CC[C@H]2[C@@H]3CC[C@@H]4C[C@@H](O)CC[C@]4(C)[C@H]3CC[C@]12C [gly-iLCA, 3β-hydroxy-5β-cholanic acid glycine amide] |  |  |  | 0.017 ± 0.006 pmol/cm^2/s | 16.6 (0.8) cm/s x 10^6 | 5.07 µM | Estimate for Kt ([4]; estimate, not determinable due to high passive permeability): 6.82 (4.98) μM; Pp fold that of native counterpart ([5]; vs gly-LCA): 20 fold; fold weaker inhibitory potency (Ki) than corresponding native BA [6]: 12 fold
C[C@H](CCC(=O)NCC(=O)O)[C@H]1CC[C@H]2[C@@H]3[C@@H](O)C[C@@H]4C[C@@H](O)CC[C@]4(C)[C@H]3CC[C@]12C [gly-iUDCA, 3β,7β-dihydroxy-5β-cholanic acid glycine amide] |  |  |  | 0.038 ± 0.006 pmol/cm^2/s | 0.690 (0.090) cm/s x 10^6 | 7.66 µM | Kt fold higher than Ki [4]: about 10 fold; Kt (μM ±SEM) [4]: 75.3 (22.1) μM; fold lower Jmax than corresponding native BA [4]: 16 fold; Relative Jmax (% TCA Jmax ±SEM) [4]: 14.0 (2.4) % TCA Jmax
C[C@H](CCC(=O)O)[C@H]1CC[C@H]2[C@@H]3[C@H](O)C[C@@H]4C[C@@H](O)CC[C@]4(C)[C@H]3CC[C@]12C [iCDCA, 3β, 7α-dihydroxy-5β-cholanic acid] |  |  |  |  |  |  | Ki [6]: 11.8 µM; fold weaker inhibitory potency (Ki) than corresponding native BA [6]: 6 fold; fold more potent (Ki) than iUDCA ([6]; 7α-hydroxyl vs 7β-epimer): 2 fold
C[C@H](CCC(=O)O)[C@H]1CC[C@H]2[C@@H]3CC[C@@H]4C[C@@H](O)CC[C@]4(C)[C@H]3C[C@H](O)[C@]12C [iDCA, 3β, 12α-dihydroxy-5β-cholanic acid] |  |  |  |  |  |  | Ki [6]: 11.4 µM
C[C@H](CCC(=O)O)[C@H]1CC[C@H]2[C@@H]3CC[C@@H]4C[C@@H](O)CC[C@]4(C)[C@H]3CC[C@]12C [iLCA, 3β-hydroxy-5β-cholanic acid] |  |  |  |  |  |  | Ki [6]: 5.36 µM
C[C@H](CCC(=O)O)[C@H]1CC[C@H]2[C@@H]3[C@@H](O)C[C@@H]4C[C@@H](O)CC[C@]4(C)[C@H]3CC[C@]12C [iUDCA, 3β, 7β-dihydroxy-5β-cholanic acid] |  |  |  |  |  |  | Ki [6]: 24.7 µM
